Data: patent US20260308108A1, “COMPOSITIONS AND METHODS FOR THE TREATMENT OF OCULAR DISORDERS” (Case Western Reserve University, priority 2023, published 2026)
Values joined by “and” are separate entries in the source; they are usually repeats but may differ in a detail not shown here. Identical values can stand only once. “Also recorded” adds a separate entry of the source. Like-named read-outs stand apart in the source and are kept apart here.

Legend:
[1] = biological target: RPE65 (Bos taurus, UniProt Q28175); assay: RPE65 activity assay in vitro (11-cis-retinol production by bovine RPE microsomes); conditions: for RPE65 inhibition (in words): in vitro
[2] = system: VAP-1; conditions: role: substrate; cited from earlier work
[3] = system: RPE65; conditions: among first targeted inhibitors (amine derivatives of retinol); cited from earlier work
[4] = system: RPE65; conditions: 10 mg/kg IP; for 11cRAL / RE: mean ± SD, n = 3 mice
[5] = Observation of animals after treatment (toxicity); type: in vivo, BALB/cJ mice; conditions: 10 mg/kg IP; even 24 h after treatment
Description: Vehicle-only and nontreated animals served as controls. […] Three animals were used for each time point.

[6] = biological target: T1, VAP-1 (Mus musculus, UniProt O70423); assay: VAP-1 oxidation assay (mouse aorta homogenates); conditions: role: substrate; for ACU-5201 (deaminated product) formed / concentration of tested compound in mouse aorta homogenate: 100 μM, mean ± SD, n = 3
T1 sequence (O70423 1-765): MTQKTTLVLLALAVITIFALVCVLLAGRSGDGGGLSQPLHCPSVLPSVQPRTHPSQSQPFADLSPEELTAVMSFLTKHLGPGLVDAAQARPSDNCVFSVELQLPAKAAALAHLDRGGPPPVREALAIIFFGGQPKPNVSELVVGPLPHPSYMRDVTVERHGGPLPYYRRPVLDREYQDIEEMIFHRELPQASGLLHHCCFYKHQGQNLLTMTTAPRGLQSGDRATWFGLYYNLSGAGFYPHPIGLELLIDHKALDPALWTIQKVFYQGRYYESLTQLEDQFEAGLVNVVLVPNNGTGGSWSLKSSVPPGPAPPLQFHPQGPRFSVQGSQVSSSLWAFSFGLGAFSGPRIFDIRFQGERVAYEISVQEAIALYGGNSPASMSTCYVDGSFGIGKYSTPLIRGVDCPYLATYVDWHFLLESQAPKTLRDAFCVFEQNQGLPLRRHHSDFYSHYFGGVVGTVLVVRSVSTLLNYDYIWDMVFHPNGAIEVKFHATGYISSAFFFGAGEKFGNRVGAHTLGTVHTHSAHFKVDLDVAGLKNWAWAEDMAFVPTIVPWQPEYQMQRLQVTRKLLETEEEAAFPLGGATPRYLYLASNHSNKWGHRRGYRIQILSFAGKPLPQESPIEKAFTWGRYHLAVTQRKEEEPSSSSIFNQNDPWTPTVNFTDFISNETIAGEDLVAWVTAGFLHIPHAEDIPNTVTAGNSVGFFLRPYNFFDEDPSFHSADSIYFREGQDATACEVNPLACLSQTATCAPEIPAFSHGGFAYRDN

[7] = in vitro; conditions: mouse, microsomes
[8] = system: mouse liver microsomes (CYP-450 enzymes)
[9] = read-out: IC50 ± SD, bovine RPE microsomes, mean ± SD, n = 3
[10] = bovine RPE microsomes, mean ± SD, n = 3

Sequence of RPE65 (Bos taurus, UniProt Q28175) (Q28175 whole entry): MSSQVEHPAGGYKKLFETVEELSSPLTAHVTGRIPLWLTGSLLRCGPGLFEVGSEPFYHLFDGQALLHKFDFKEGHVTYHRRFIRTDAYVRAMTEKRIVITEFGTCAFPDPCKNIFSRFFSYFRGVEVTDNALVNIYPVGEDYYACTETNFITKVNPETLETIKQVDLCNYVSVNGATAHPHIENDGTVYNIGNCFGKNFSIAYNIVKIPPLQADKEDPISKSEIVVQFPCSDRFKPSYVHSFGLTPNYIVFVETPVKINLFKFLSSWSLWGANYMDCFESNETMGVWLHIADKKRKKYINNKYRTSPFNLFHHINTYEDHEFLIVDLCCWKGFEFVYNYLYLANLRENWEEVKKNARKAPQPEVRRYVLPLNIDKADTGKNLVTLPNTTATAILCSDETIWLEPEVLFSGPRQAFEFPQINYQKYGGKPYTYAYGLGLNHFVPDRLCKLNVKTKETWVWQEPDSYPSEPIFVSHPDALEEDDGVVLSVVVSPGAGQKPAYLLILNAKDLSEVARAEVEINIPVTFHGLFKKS

Compound `NCCC(O)c1ccccc1OCC1CCCCC1` (stereo not shown) [Compound 3c, 3-Amino-1-(2-(cyclohexylmethoxy)phenyl)propan-1-ol] has an IC50 [1, 9] of 4670 ± 1230 nM.

With `NC(CCO)c1cccc(OCC2CCCCC2)c1` (stereo not shown) [Compound 6a, 3-Amino-3-(3-(cyclohexylmethoxy)phenyl)propan-1-ol] the “IC50 ± SD” value [1, 10] was “No Inhibition” and the “RPE65 inhibition (in words)” value [1] was “lack of inhibitory activity; also recorded: no inhibition in vitro”.

For `COc1cc(NC(C)CCCN)c2ncccc2c1` (stereo not shown) [primaquine], the “VAP-1 metabolism (in words)” value [2] is listed as “shown important”.

For `NCC(O)c1cccc(OCC2CCCCC2)c1` (stereo not shown) [Compound 11a], the “RPE65 inhibition (in words)” value [1] was “substantially less potent than 3a” and the IC50 [1, 9] was 3190 ± 810 nM.

For `CC1=C(/C=C/C(C)=C/C=C/C(C)=C/CN)C(C)(C)CCC1` [retinylamine], the “potency as RPE65 inhibitor (in words)” value [3] is listed as “the most potent among them”.

With `NCCc1ccc(F)c(OCC2CCCCC2)c1` [Compound 11d, 2-(3-(Cyclohexylmethoxy)-4-fluorophenyl)ethan-1-amine] the IC50 [1, 9] was 1230 ± 130 nM and the “decrease in RPE65 inhibition relative to 11b” value ([1]; relative to 11b) was 3 fold.

In the case of `NC(CO)Cc1ccc(OCC2CCCCC2)cc1` (stereo not shown) [Compound 6c, 2-Amino-3-(4-(cyclohexylmethoxy)phenyl)propan-1-ol], the “IC50 ± SD” value [1, 10] is reported as “No Inhibition” and the “RPE65 inhibition (in words)” value [1] is reported as “lack of dose-response relationship”.

`NCCC(O)c1ccc(OCC2CCCCC2)cc1` (stereo not shown) [Compound 3b, 3-Amino-1-(4-(cyclohexylmethoxy)phenyl)propan-1-ol] gave an IC50 [1] of 8980 ± 3440 nM.

For `CC(CCN)c1cccc(OCC2CCCCC2)c1` (stereo not shown) [Compound 16b, 3-(3-(Cyclohexylmethoxy)phenyl)butan-1-amine], the “RPE65 inhibition in vivo (in words)” value [4] was “minor RPE65 inhibition 4 h after treatment, but animals were fully dark-adapted after 24 h”, the 11cRAL ([4]; 0 h after light exposure) was 25.6 ± 2.7 pmol/eye and the RE ([4]; 0 h after light exposure) was 291.5 ± 33.1 pmol/eye. For the same compound, the 11cRAL ([4]; 4 h) was 94.4 ± 11.4 pmol/eye, the RE ([4]; 4 h) was 435.5 ± 27.5 pmol/eye and the 11cRAL ([4]; 24 h) was 370.5 ± 9.1 pmol/eye. For the same compound, the RE ([4]; 24 h) was 123.9 ± 36.4 pmol/eye, the “toxicity observed in treated animals” value [5] was “all animals showed impaired body movement even 24 h after treatment” and the “RPE65 inhibition (in words)” value [1] was “the lowest level of inhibition”. For the same compound, the IC50 [1, 9] was 820 ± 500 nM, the “decrease in inhibition of RPE65 relative to 3a” value [1] was 4 fold and the “potency relative to 16a” value ([1]; relative to 16a) was “roughly doubled”.

With `CC(CN)Cc1cccc(OCC2CCCCC2)c1` (stereo not shown) [Compound 16c] the 11cRAL ([4]; 0 h after light exposure) was 17.4 ± 0.8 pmol/eye, the RE ([4]; 0 h after light exposure) was 253.5 ± 22.5 pmol/eye and the 11cRAL ([4]; 4 h) was 323.0 ± 5.1 pmol/eye. For the same compound, the RE ([4]; 4 h) was 111.9 ± 18.5 pmol/eye, the 11cRAL ([4]; 24 h) was 253.5 ± 9.0 pmol/eye and the RE ([4]; 24 h) was 85.6 ± 12.7 pmol/eye. For the same compound, the IC50 [1] was 590 ± 70 nM.

With `CNCCC(O)c1cccc(OCC2CCCCC2)c1` (stereo not shown) [Compound 16e, 1-(3-(Cyclohexylmethoxy)phenyl)-3-(methylamino)propan-1-ol] the “16e level in eye” value (after single IP of 3a, 1 h) was 0.000 pmol/eye, the “16e level in serum” value (after single IP of 3a, 1 h) was 0.00 pmol/mL serum and the “levels in eye and plasma (in words)” value (after single IP of 16e (10 mg/kg)) was “decreased significantly at 4 h and approached baseline levels in both eye and plasma at 24 h after injection”. For the same compound, the “16e level in serum” value (after single IP of 16e, 24 h) was 0.000 pmol/mL serum, the concentration (read-out: 16e level in serum, after single IP of 16e, 4 h, 10 mg/kg) was 0.111 µM and the “VAP-1 oxidative metabolism (in words)” value [6] was “resistant to VAP-1 oxidative deamination”. For the same compound, the “ACU-5201 (deaminated product) formed” value ([6]; 0 h) was 0.00 ± 0.00 µM, the “concentration of tested compound in mouse aorta homogenate” value (from here on “concentration of tested compound”) ([6]; 0 h) was 100.32 ± 0.95 µM and the “ACU-5201 (deaminated product) formed” value ([6]; 1 h) was 0.48 ± 0.68 µM. For the same compound, the “concentration of tested compound” value ([6]; 1 h) was 101.20 ± 0.89 µM, the “ACU-5201 (deaminated product) formed” value ([6]; 4 h) was 3.76 ± 0.29 µM and the “concentration of tested compound” value ([6]; 4 h) was 89.07 ± 0.49 µM. For the same compound, the “reduction of the formation of ACU-5201” value ([6]; 1 h) was “about 99.5%”, the “reduction of the formation of ACU-5201” value ([6]; 4 h) was ~96.25% and the 11cRAL ([4]; 0 h after light exposure) was 13.8 ± 1.5 pmol/eye. The RE ([4]; 0 h after light exposure) was 296.6 ± 65.2 pmol/eye, the 11cRAL ([4]; 4 h) was 22.5 ± 4.5 pmol/eye and the RE ([4]; 4 h) was 393.5 ± 60.0 pmol/eye. The “level of 11cRAL as percent of the dark-adapted level” value ([4]; 24 h) was 53%, the 11cRAL ([4]; 24 h) was 201.8±53.2 pmol/eye and the RE ([4]; 24 h) was 215.4±99.2 pmol/eye and 213.4 ± 99.2 pmol/eye. For the same compound, the Km [7] was 39 µM and the Km [8] was 39 µM.

In the case of `NCCc1cccc(OCC2CCCCC2)c1` [Compound 11b, 2-(3-(Cyclohexylmethoxy)phenyl)ethan-1-amine], the “RPE65 inhibition in vivo (in words)” value [4] is reported as “did not display hallmarks of inhibited RPE65 activity in vivo”, the 11cRAL ([4]; 0 h after light exposure) is reported as 16.2 ± 16.2 pmol/eye and the RE ([4]; 0 h after light exposure) is reported as 225.1 ± 29.5 pmol/eye. For the same compound, the 11cRAL ([4]; 24 h) was 137.4 ± 44.5 pmol/eye, the RE ([4]; 24 h) was 377.3 ± 54.4 pmol/eye and the IC50 ([1]; bovine RPE microsomes) was 420 ± 110 nM. For the same compound, the “more potent activity toward RPE65 relative to amine 11a” value ([1]; relative to 11a) was 7.6 times.

For `NC(CO)Cc1cccc(OCC2CCCCC2)c1` (stereo not shown) [Compound 6b, 2-Amino-3-(3-(cyclohexylmethoxy)phenyl)propan-1-ol], the “IC50 ± SD” value [1, 10] was “No Inhibition” and the “RPE65 inhibition (in words)” value [1] was “no inhibition in vitro”.

For `CC(CN)c1cccc(OCC2CCCCC2)c1` (stereo not shown) [Compound 11c, 2-(3-(Cyclohexylmethoxy)phenyl)propan-1-amine], the “RPE65 inhibition (in words)” value [1] was “weaker inhibition; also recorded: the lowest level of inhibition” and the IC50 [1, 9] was 6730 ± 260 nM.

In the case of `CC(CN)Cc1ccc(F)c(OCC2CCCCC2)c1` (stereo not shown) [Compound 16d, 3-(3-(Cyclohexylmethoxy)-4-fluorophenyl)-2-methylpropan-1-amine], the 11cRAL ([4]; 0 h after light exposure) is reported as 23.5 ± 2.3 pmol/eye, the RE ([4]; 0 h after light exposure) is reported as 259.9 ± 54.6 pmol/eye and the 11cRAL ([4]; 4 h) is reported as 398.0±26.6 pmol/eye and 413.2 ± 8.1 pmol/eye. For the same compound, the RE ([4]; 4 h) was 101.1 ± 12.9 pmol/eye, the 11cRAL ([4]; 24 h) was 398.0 ± 26.6 pmol/eye and the RE ([4]; 24 h) was 122.7 ± 30.6 pmol/eye. The “IC50 ± SD” value [1, 10] was “No Inhibition” and the “RPE65 inhibition (in words)” value [1] was “inactive”.

With `NCCCc1cccc(OCC2CCCCC2)c1` [Compound 16a] the IC50 [1, 9] was 1550 ± 300 nM and the “decrease in inhibition of RPE65 relative to 3a” value [1] was 8 fold.

For `N=C(N)NCCCCCCNC(=O)COC(=O)NCCCCNCCCN` [tresperimus], the “VAP-1 metabolism (in words)” value [2] is listed as “shown important”.
